Experimental data reported in patent US4851411A, “5-monoaryl as.-triazin-3-ones substituted in 2-position, and their use as medicaments” (Pierre Fabre Medicament, priority 1986, dated 1989).

Key:
[1] = Toxicity study in the mouse, oral single dose (LD50); assay type: in vivo; conditions: for toxicity: summary in conclusion
Procedure: The toxicity study was carried out in the conventional mouse, weighing about 20 g.
The substances were administered orally in a single dose of 300 and 1000 mg/kg respectively. At these doses we were not able to determine the LD50 's which are higher >1000 mg/kg.

[2] = Anxiolytic activity, group of tests (LAB-X elevated plus-maze, SKINNER, VOGEL); assay type: in vivo, rat; conditions: 30 mg/kg by mouth
From the text: These compounds were also studied in order to test for anxiolytic activity using a group of tests
(Ref.: LAB-X: Sh. Pellow, Ph. Chopin, S. E. File and M. Briley--Validation of open:closed arm entries in an elevated plus-maze as a measure of anxiety in the rat (Journal of Neuroscience Methods, 14 (1983), 149-167)
SKINNER: GELLER and SEIFTER, Psychopharmacologia (1960) 1, 482-492

5 HTP = assay: Potentialization of 5 HTP; assay type: in vivo
From the text: The tests used for the pharmacological screening are:
the potentialization of 5 HTP (Ref.: Christensen, A. V. et al., Eur. J. of Pharm. (1977), 41, 153-162)

Solubility = assay type: physicochemical

SMILES: COc1ccc(-c2cnn(CC(C)=O)c(=O)n2)cc1 [Example 1, 2-acetonyl 3-oxo 5-p-methoxyphenyl ax.-triazine]
- LD50 ([1]; in vivo, mouse, oral, single dose): > 3000 mg/kg
- toxicity [1]: very low toxicity
- anxiolytic activity [2]: significant results
- ED50 (5 HTP): 25 mg/kg

SMILES: COc1ccc(-c2cnn(C(C)C(C)=O)c(=O)n2)cc1 (stereo not drawn) [Example 4, 2-alpha-methylacetonyl 3-oxo 5-p-methoxyphenyl as.-triazine]
- solubility in chloroform (Solubility): Soluble
- solubility in methylene chloride (Solubility): Soluble
- solubility in water (Solubility): insoluble
- toxicity [1]: very low toxicity
- anxiolytic activity [2]: significant results
- ED50 (5 HTP): 35 mg/kg

SMILES: CC(=O)COc1ccc(-c2cnn(C)c(=O)n2)cc1 [Example 9, 2-methyl 3-oxo 5-p-acetonoxyphenyl as.-triazine]
- solubility in aqueous dilute acids (Solubility; aqueous dilute acids): Soluble
- solubility in chloroform (Solubility): insoluble
- solubility in methylene chloride (Solubility): Soluble
- solubility in water (Solubility): insoluble
- anxiolytic activity [2]: significant results
- ED50 (5 HTP): 40 mg/kg

SMILES: COc1ccc(-c2cnn(C3CCOC3=O)c(=O)n2)cc1 (stereo not shown) [Example 21, 2-γ-butyrolactone 3-oxo 5-p-methoxyphenyl as.-triazine]
- solubility in alcohols (Solubility; alcohols): poorly soluble
- solubility in benzene (Solubility; benzene): poorly soluble
- solubility in chloroform (Solubility): Soluble
- solubility in methylene chloride (Solubility): Soluble
- solubility in water (Solubility): insoluble
- toxicity [1]: very low toxicity
- anxiolytic activity [2]: significant results
- ED50 (5 HTP): 27 mg/kg

SMILES: CC(C)C(=O)Cn1ncc(-c2ccccc2)nc1=O [Example 22, 2-(3-methyl-2-one butyl) 5-phenyl as.-triazine]
- solubility in alcohols in the hot (Solubility; alcohols, in the hot): soluble
- solubility in chloroform (Solubility): Soluble
- solubility in methylene chloride (Solubility): Soluble
- solubility in water (Solubility): insoluble
- anxiolytic activity [2]: significant results

SMILES: COc1ccccc1-c1cnn(CC(C)=O)c(=O)n1 [Example 23, 2-acetonyl 3-oxo 5-o-methoxyphenyl as.-triazine]
- solubility in chloroform (Solubility): Soluble
- solubility in ether (Solubility): insoluble
- solubility in methylene chloride (Solubility): Soluble
- solubility in water (Solubility): insoluble
- ED50 (5 HTP): 50 mg/kg

SMILES: COc1ccc(-c2cnn(CC(N)=O)c(=O)n2)cc1 [Example 32, 2-N-acetamido 3-oxo 5-p-methoxyphenyl as.-triazine]
- solubility in alcohols (Solubility; alcohols): Insoluble
- solubility in chloroform (Solubility): Insoluble
- solubility in ether (Solubility): Insoluble
- solubility in water (Solubility): Insoluble
- toxicity [1]: very low toxicity
- ED50 (5 HTP): 20 mg/kg

SMILES: CCC(=O)Cn1ncc(-c2ccc(OC)cc2)nc1=O [Example 41, 2-(oxo-2' butyl) 3-oxo 5-p.methoxyphenyl as triazine]
- solubility in acetic acid (Solubility; acetic acid): Soluble
- solubility in alcohols (Solubility; alcohols): Insoluble
- solubility in water (Solubility): Insoluble
